Assay: Bioavailability enhancement of a drug/nutraceutical/herbal product given with bioenhancer (BE) to fasted rats; plasma drug level by HPLC, 0-24 hrs
Settings: drug + BE from Zingiber officinale (extract 30 mg/kg or fraction No 1 15 mg/kg)

Row | Compound | % Enhancement in bioavailability, BE from Zingiber officinale [%]
1 | CN(Cc1cc(Br)cc(Br)c1N)C1CCCCC1 [Bromhexine] | 46

Same assay, conditions: drug + piperine 8 mg/kg + BE from Zingiber officinale

Row | Compound | % Enhancement in bioavailability, Piperine + BE from Zingiber officinale [%]
2 | O=c1[nH]cc(F)c(=O)[nH]1 [5-Fluorouracil] | 93
3 | Cc1nnc2n1-c1ccc(Cl)cc1C(c1ccccc1)=NC2 [Aiprazolam, Alprazolam] | 70
4 | CC1(C)S[C@@H]2[C@H](NC(=O)[C@H](N)c3ccc(O)cc3)C(=O)N2[C@H]1C(=O)O [Amoxycillin] | 90
5 | CN(Cc1cc(Br)cc(Br)c1N)C1CCCCC1 [Bromhexine] | 75
6 | CN/C(=N/CCSCc1nc[nH]c1C)NC#N [Cimetidine] | 76
7 | Nc1ccc(S(=O)(=O)c2ccc(N)cc2)cc1 [Dapsone] | 55
8 | COc1cccc2c1C(=O)c1c(O)c3c(c(O)c1C2=O)C[C@@](O)(C(=O)CO)C[C@@H]3O[C@H]1C[C@H](N)[C@H](O)[C@H](C)O1 [Doxorubicin] | 75
9 | CCc1cc(C(N)=S)ccn1 [Ethionamide] | 48
10 | CC(=O)N1CCN(c2ccc(OCC3COC(Cn4ccnc4)(c4ccc(Cl)cc4Cl)O3)cc2)CC1 (centres unmarked) [Ketoconazole] | 100
11 | NCCCC[C@H](N[C@@H](CCc1ccccc1)C(=O)O)C(=O)N1CCC[C@H]1C(=O)O [Lisinopril] | 100
12 | CN(Cc1cnc2nc(N)nc(N)c2n1)c1ccc(C(=O)N[C@@H](CCC(=O)O)C(=O)O)cc1 [Methotrexate] | 49
13 | CS(=O)(=O)Nc1ccc([N+](=O)[O-])cc1Oc1ccccc1 [Nimesulide] | 165
14 | CC(C)NCC(O)COc1cccc2ccccc12 (centres unmarked) [Propranolol] | 104
15 | CO[C@H]1/C=C/O[C@@]2(C)Oc3c(C)c(O)c4c(O)c(c(/C=N/N5CCN(C)CC5)c(O)c4c3C2=O)NC(=O)/C(C)=C\C=C\[C@H](C)[C@H](O)[C@@H](C)[C@@H](O)[C@@H](C)[C@H](OC(C)=O)[C@@H]1C [Rifampicin] | 98
16 | CC(C)(C)NCC(O)c1ccc(O)c(CO)c1 (centres unmarked) [Salbutamol] | 92
17 | Cn1c(=O)c2[nH]cnc2n(C)c1=O [Theophylline] | 80
18 | Cc1cn([C@H]2C[C@H](N=[N+]=[N-])[C@@H](CO)O2)c(=O)[nH]c1=O [Zidovudine] | 126

Assay: not given
Settings: rat, in vivo

Row | Compound | % Enhancement in bioavailability, Piperine + BE from Zingiber officinale
19 | Nc1nc2c(ncn2COCCO)c(=O)[nH]1 [Acyclovir] | 85%
20 | NCC[C@H](O)C(=O)N[C@@H]1C[C@H](N)[C@@H](O[C@H]2O[C@H](CN)[C@@H](O)[C@H](O)[C@H]2O)[C@H](O)[C@H]1O[C@H]1O[C@H](CO)[C@@H](O)[C@H](N)[C@H]1O [Amikacin] | Nil
21 | CCOC(=O)C1=C(COCCN)NC(C)=C(C(=O)OC)C1c1ccccc1Cl (centres unmarked) [Amlodipine] | 95%
22 | CC[C@H]1OC(=O)[C@H](C)[C@@H](O[C@H]2C[C@@](C)(OC)[C@@H](O)[C@H](C)O2)[C@H](C)[C@@H](O[C@@H]2O[C@H](C)C[C@H](N(C)C)[C@H]2O)[C@](C)(O)C[C@@H](C)CN(C)[C@H](C)[C@@H](O)[C@]1(C)O [Azithromycin] | 85%
23 | CC1=C(C(=O)O)N2C(=O)[C@@H](NC(=O)[C@H](N)c3ccc(O)cc3)[C@H]2SC1 [Cefadroxil] | 65%
24 | C=CC1=C(C(=O)O)N2C(=O)[C@@H](NC(=O)/C(=N\OCC(=O)O)c3csc(N)n3)[C@H]2SC1 [Cefixime] | Nil
25 | Cc1onc(-c2ccccc2Cl)c1C(=O)N[C@@H]1C(=O)N2[C@@H]1SC(C)(C)[C@@H]2C(=O)O [Cloxacillin] | 90%
26 | N[C@@H]1CON=C1O [Cycloserine] | 70%
27 | O=C(O)Cc1ccccc1Nc1c(Cl)cccc1Cl [Diclofenac] | 140%
28 | CC[C@H]1OC(=O)[C@H](C)[C@@H](O[C@H]2C[C@@](C)(OC)[C@@H](O)[C@H](C)O2)[C@H](C)[C@@H](O[C@@H]2O[C@H](C)C[C@H](N(C)C)[C@H]2O)[C@](C)(O)C[C@@H](C)C(=O)[C@H](C)[C@@H](O)[C@]1(C)O [Erythromycin] | 105%
29 | CC[C@@H](CO)NCCN[C@@H](CC)CO [Ethambutol] | Nil
30 | NNC(=O)c1ccncc1 [Isoniazid] | Negligible
31 | CCn1cc(C(=O)O)c(=O)c2cc(F)c(N3CCNCC3)cc21 [Norfloxacin] | Negligible
32 | CC1COc2c(N3CCN(C)CC3)c(F)cc3c(=O)c(C(=O)O)cn1c23 (centres unmarked) [O-floxacin, Ofloxacin] | 67%
33 | COc1ccc2[nH]c([S+]([O-])Cc3ncc(C)c(OC)c3C)nc2c1 (centres unmarked) [Omeprazole] | Nil
34 | CN1C(C(=O)Nc2ccccn2)=C(O)c2ccccc2S1(=O)=O [Piroxicam] | 134%
35 | NC(=O)c1cnccn1 [Pyrazinamide] | Nil
36 | CNC(=C[N+](=O)[O-])NCCSCc1ccc(CN(C)C)o1 [Ranitidine] | 165%
37 | CC[C@H]1OC(=O)[C@H](C)[C@@H](O[C@H]2C[C@@](C)(OC)[C@@H](O)[C@H](C)O2)[C@H](C)[C@@H](O[C@@H]2O[C@H](C)C[C@H](N(C)C)[C@H]2O)[C@](C)(O)C[C@@H](C)/C(=N\OCOCCOC)[C@H](C)[C@@H](O)[C@]1(C)O [Roxythromycin] | 93%
38 | C=CC[C@@H]1/C=C(\C)C[C@H](C)C[C@H](OC)[C@H]2O[C@@](O)(C(=O)C(=O)N3CCCC[C@H]3C(=O)O[C@H](/C(C)=C/[C@@H]3CC[C@@H](O)[C@H](OC)C3)[C@H](C)[C@@H](O)CC1=O)[C@H](C)C[C@@H]2OC [Tacrolimus] | 117%

Source: patent publication US20030170326A1, “Bioavailability enchancing activity of Zingiber officinale Linn and its extracts/fractions thereof” (COUNCIL OF SCIENTIFIC AND INDUSTRIAL RESEARCH, priority 2001, published 2003)
